pIC50: −log10 of the molar value. Calls of active or inactive are those of the source. The rule behind the calls is not given here.

The target of assay [1] is T1, Histone-lysine N-methyltransferase NSD2 (Homo sapiens, UniProt O96028).
T1 sequence (O96028 whole entry): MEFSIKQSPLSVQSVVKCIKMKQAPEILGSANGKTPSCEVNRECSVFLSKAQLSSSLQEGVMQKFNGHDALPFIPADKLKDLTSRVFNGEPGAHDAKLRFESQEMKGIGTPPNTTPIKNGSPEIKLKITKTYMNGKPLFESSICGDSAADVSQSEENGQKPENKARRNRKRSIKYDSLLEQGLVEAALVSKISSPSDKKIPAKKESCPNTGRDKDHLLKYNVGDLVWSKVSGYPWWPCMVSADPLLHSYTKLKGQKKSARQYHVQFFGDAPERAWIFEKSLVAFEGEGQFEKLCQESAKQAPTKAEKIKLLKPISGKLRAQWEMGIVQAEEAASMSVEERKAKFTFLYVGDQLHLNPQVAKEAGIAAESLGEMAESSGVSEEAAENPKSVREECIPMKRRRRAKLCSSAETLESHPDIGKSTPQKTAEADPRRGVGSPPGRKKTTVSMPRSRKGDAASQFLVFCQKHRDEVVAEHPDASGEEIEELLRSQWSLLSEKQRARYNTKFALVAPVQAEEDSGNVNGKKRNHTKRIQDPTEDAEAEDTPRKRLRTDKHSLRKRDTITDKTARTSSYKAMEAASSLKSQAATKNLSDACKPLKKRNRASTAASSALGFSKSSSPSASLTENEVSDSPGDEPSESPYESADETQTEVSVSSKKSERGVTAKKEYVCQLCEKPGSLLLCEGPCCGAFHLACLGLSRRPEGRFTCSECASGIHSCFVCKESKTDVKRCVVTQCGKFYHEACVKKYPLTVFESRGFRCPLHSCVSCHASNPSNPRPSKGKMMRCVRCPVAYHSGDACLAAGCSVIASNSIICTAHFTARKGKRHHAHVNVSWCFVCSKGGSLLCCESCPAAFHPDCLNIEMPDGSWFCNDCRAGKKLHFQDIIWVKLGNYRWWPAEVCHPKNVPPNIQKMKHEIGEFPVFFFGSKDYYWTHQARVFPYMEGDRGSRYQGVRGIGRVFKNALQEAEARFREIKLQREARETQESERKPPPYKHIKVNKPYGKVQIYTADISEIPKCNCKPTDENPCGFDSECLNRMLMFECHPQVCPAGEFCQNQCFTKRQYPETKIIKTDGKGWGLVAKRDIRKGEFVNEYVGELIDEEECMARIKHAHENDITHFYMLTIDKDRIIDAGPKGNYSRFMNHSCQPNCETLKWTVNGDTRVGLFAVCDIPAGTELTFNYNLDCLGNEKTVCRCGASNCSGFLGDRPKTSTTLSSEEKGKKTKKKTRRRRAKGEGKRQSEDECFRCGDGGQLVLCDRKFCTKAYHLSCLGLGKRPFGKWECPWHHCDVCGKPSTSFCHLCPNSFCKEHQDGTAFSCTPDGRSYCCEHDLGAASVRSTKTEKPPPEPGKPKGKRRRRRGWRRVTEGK
Kind of assay: Binding affinity to N-terminal His6/Sumo-tagged NSD2 PWWP1 domain (211 to 350 residues) (unknown origin) expressed in Escherichia coli BL21 (DE3) using ATKAARKSAPATGGV-Lys (me)2-KPHRYRPG polypeptide as substrate incubated for 3 hrs by HTRF assay. A general note: TR-FRET usually uses a lanthanide donor and a delayed reading to cut background.

In assay [2] the test system is MV4-11. Kind of assay: Induction of apoptosis in human MV4-11 cells assessed as early apoptotic cells at 5 uM measured after 72 hrs by Annexin V FITC/PI staining based flow cytometry analysis (reference value: 4.58 %). Format: functional. (In general: In flow cytometry, cells or beads pass a laser one at a time.)
Assay [3] concerns the target T2, Histone-lysine N-methyltransferase NSD2 (Homo sapiens) (UniProt O96028).
T2 sequence (whole entry): T1 sequence (O96028 whole entry)
Description: Inhibition of NSD2 in human KMS-11 cells assessed as decrease in TEMEL2 gene expression at 10 uM incubated for 72 hrs by RT-PCR analysis. Format: cell-based.

Assay [4] relates to KMS-11. Kind of assay: Induction of apoptosis in human KMS-11 cells assessed as late apoptotic cells at 10 uM measured after 72 hrs by Annexin V FITC/PI staining based flow cytometry analysis (reference value: 13.3 %). Format: functional.
Assay [5] has as its system KMS-11. Kind of assay: Induction of apoptosis in human KMS-11 cells assessed as early apoptotic cells at 5 uM measured after 72 hrs by Annexin V FITC/PI staining based flow cytometry analysis (reference value: 16.5 %). It is filed as functional.
Assay [6] relates to MV4-11. Kind of assay: Induction of apoptosis in human MV4-11 cells assessed as necrotic cells at 5 uM measured after 72 hrs by Annexin V FITC/PI staining based flow cytometry analysis (reference value: […]). Format: functional.
The subject of assay [7] is KMS-11. Description: Induction of apoptosis in human KMS-11 cells assessed as viable cells at 5 uM measured after 72 hrs by Annexin V FITC/PI staining based flow cytometry analysis (reference value: 69.4%). Format: functional. As to conditions: read-out: Activity.
The test system of assay [8] is KMS-11. Description: Induction of apoptosis in human KMS-11 cells assessed as viable cells at 10 uM measured after 72 hrs by Annexin V FITC/PI staining based flow cytometry analysis (reference value: 69.4%). It is filed as functional. As to conditions: read-out: Activity.
The subject of assay [9] is KMS-11. Description: Antiproliferative activity against human KMS-11 cells assessed as inhibition of cell proliferation measured after 6 days by CCK8 assay. It is filed as functional, cell-based. Particulars: KMS-11, 144 h. On the technique in general: Tetrazolium assays rely on reduction of a dye to a coloured formazan, in cell work by metabolically active cells.
The target of assay [10] is T2, Histone-lysine N-methyltransferase NSD2 (Homo sapiens). Kind of assay: Inhibition of NSD2 in human RS4-11 cells assessed as decrease in TEMEL2 gene expression at 10 uM incubated for 72 hrs by RT-PCR analysis. It is filed as cell-based.
The subject of assay [11] is MM1.S. Description: Antiproliferative activity against human MM1.S cells assessed as inhibition of cell proliferation measured after 6 days by CCK8 assay. It is filed as functional, cell-based. As to conditions: 144 h.
Assay [12] relates to MV4-11. Description: Induction of apoptosis in human MV4-11 cells assessed as viable cells at 5 uM measured after 72 hrs by Annexin V FITC/PI staining based flow cytometry analysis (reference value: 91.7%). Particulars: read-out: Activity. It is filed as functional.
In assay [13] the test system is KMS-11. Description: Induction of apoptosis in human KMS-11 cells assessed as early apoptotic cells at 10 uM measured after 72 hrs by Annexin V FITC/PI staining based flow cytometry analysis (reference value: 16.5 %). It is filed as functional.
The test system of assay [14] is KMS-11. Kind of assay: Induction of apoptosis in human KMS-11 cells assessed as necrotic cells at 10 uM measured after 72 hrs by Annexin V FITC/PI staining based flow cytometry analysis (reference value: 0.88%). Format: functional.
Assay [15] concerns MV4-11. Kind of assay: Antiproliferative activity against human MV4-11 cells assessed as inhibition of cell proliferation measured after 6 days by CCK8 assay. Format: functional, cell-based. Particulars: MV4-11, 144 h.

One may read the pIC50 as −log10 of the IC50, conventionally taken in molar units. Consider `Cc1cc(CN2CCC(N)CC2)cc(C)c1-c1ncn(C)c1-c1ccc(C#N)c2ccccc12`, for which the pIC50 is 6.96 in [1], 5.07 in [9], 4.96 in assay [11] and 5.65 in [15]. The Activity in assay [2] was determined as 6.26%; in assay [4], 32.7%; in assay [5] it was 21.1%; in assay [6], 0.4%; in [13] it was 28.7%; in assay [14], 1.86%. Besides, the inhibition result in assay [3] and in assay [10] was “Active” in each case. Moreover, the figures for the viability at 5 µM in assay [7] and in assay [12] were 61.7% and 91%, respectively. The viability at 10 µM in assay [8] was 36.8%.

For the origin of these results see ChEMBL document CHEMBL5120900, “Structure-Based Discovery of a Series of NSD2-PWWP1 Inhibitors” (J Med Chem, 2022).
